US7109243B2 (IRM LLC, priority 2003, dated 2006)
Read-outs that look alike come from different tables or passages of the source.

Columns and labels:
Cathepsin S = Cathepsin S (Homo sapiens, UniProt P25774); assay: Cathepsin S inhibition assay (fluorogenic peptide substrate); format: biochemical
Outline: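 Ki values come from nonlinear fitting of inhibited hydrolysis rates, taking free and total inhibitor concentrations as equal. Rates measured as rising fluorescence at 380/450 nm after reaction start with 50 μM final acetyl-HPVK-aminocarbamoylcoumarin.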

Cathepsin K = target: T1, Cathepsin K (Homo sapiens, UniProt P43235); assay: Cathepsin K inhibition assay (fluorogenic peptide substrate); selectivity ratio vs cathepsin S; format: biochemical
T1 sequence (P43235 115-329): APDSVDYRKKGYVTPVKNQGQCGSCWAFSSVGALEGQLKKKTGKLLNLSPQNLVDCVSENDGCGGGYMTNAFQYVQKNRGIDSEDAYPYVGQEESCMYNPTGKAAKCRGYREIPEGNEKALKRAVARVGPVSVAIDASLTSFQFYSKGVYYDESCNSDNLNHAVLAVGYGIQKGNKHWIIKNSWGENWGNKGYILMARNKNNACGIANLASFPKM
Outline: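 Fluorogenic kinetic assay, started with acetyl-Lys-His-Pro-Lys-aminocarbamoylcoumarin at 40 μM final, hydrolysis followed at ex 380/em 450 nm. Apparent inhibition constants from progress curves, converted to competitive inhibition constants. Selectivity expressed as isozyme inhibition constant divided by cathepsin S inhibition constant.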

[1] = Table II, compounds of Formula I, read-out: Ki Cat. S
[2] = ratio of cathepsin K inhibition constant to cathepsin S inhibition constant, Table II

Cathepsin S, sequence (P25774 115-331, species assumed): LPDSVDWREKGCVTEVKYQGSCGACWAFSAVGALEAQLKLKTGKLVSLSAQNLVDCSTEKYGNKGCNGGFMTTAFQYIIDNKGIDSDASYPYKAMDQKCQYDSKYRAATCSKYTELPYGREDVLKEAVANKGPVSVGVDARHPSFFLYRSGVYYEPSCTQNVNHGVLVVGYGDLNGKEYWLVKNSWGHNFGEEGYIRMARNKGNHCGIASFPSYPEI

Compound: COc1ccc(NCCNC(=O)[C@H](Cc2ccc(-c3ccc(N(C)C)cc3)cc2)NC(=O)c2cccc(C)c2)cc1 [Compound 287, (S)-N-{2-(4′-Dimethylamino-biphenyl-4-yl)-1-[2-(4-methoxy-phenylamino)-ethylcarbamoyl]-ethyl}-3-methyl-benzamide]
- Ki (Cathepsin S; [1]): < 1000 nM
- Selectivity for Cat. S over Cat. K (Cathepsin K; [2]): ++ (++, >100)

Compound: COc1ccc(NCCNC(=O)C(NC(=O)c2cccc(C)c2)c2ccccc2C)cc1 (centres unmarked) [Compound 220, N-{[2-(4-Methoxy-phenylamino)-ethylcarbamoyl]-o-tolyl-methyl}-3-methyl-benzamide]
- Ki (Cathepsin S; [1]): < 1000 nM
- Selectivity for Cat. S over Cat. K (Cathepsin K; [2]): ++ (++, >100)

Compound: COc1ccc(NCCNC(=O)[C@H](Cc2ccc(Oc3ccccc3)cc2)NC(=O)c2cccc(C)c2)cc1 [Compound 327, (S)-N-[1-[2-(4-Methoxy-phenylamino)-ethylcarbamoyl]-2-(4-phenoxy-phenyl)-ethyl]-3-methyl-benzamide]
- Ki (Cathepsin S; [1]): < 1000 nM
- Selectivity for Cat. S over Cat. K (Cathepsin K; [2]): ++ (++, >100)

Compound: COc1ccc(NCCNC(=O)[C@H](Cc2ccccc2)NC(=O)c2cccc3c2OCC3)cc1 [Compound 52, (S)-2,3-Dihydro-benzofuran-7-carboxylic acid {1-[2-(4-methoxy-phenylamino)-ethylcarbamoyl]-2-phenyl-ethyl}-amide]
- Ki (Cathepsin S; [1]): < 10000 nM
- Selectivity for Cat. S over Cat. K (Cathepsin K; [2]): + (+, >10)

Compound: Cc1oc(S(=O)(=O)N2CCOCC2)cc1C(=O)N[C@@H](CC1CCCCC1)C(=O)NCCNc1ccc(OC(F)(F)F)cc1 [Compound 49, 2-Methyl-5-(morpholine-4-sulfonyl)-furan-3carboxylic acid (S)-{2-cyclohexyl-1-[2-(4-trifluoromethoxy-phenylamino)-ethylcarbamoyl]-ethyl}-amide]
- Ki (Cathepsin S; [1]): < 100 nM
- Selectivity for Cat. S over Cat. K (Cathepsin K; [2]): ++ (++, >100)

Compound: COc1ccc(NCCNC(=O)[C@H](Cc2ccccc2)NC(=O)c2cccc(C)c2Cl)cc1 [Compound 16, (S)-2-Chloro-N-{1-[2-(4-methoxy-phenylamino)-ethylcarbamoyl]-2-phenyl-ethyl}-3-methyl-benzamide]
- Ki (Cathepsin S; [1]): < 1000 nM
- Selectivity for Cat. S over Cat. K (Cathepsin K; [2]): + (+, >10)

Compound: O=C(N[C@@H](CC1CCCCC1)C(=O)NCCNc1ccc(OC(F)(F)F)cc1)c1ccc(-c2cccc(C(F)(F)F)c2)o1 [Compound 246, (S)-5-(3-Trifluoromethyl-phenyl)-furan-2-carboxylic acid {2-cyclohexyl-1-[2-(4-trifluoromethoxy-phenylamino)-ethylcarbamoyl]-ethyl}-amide]
- Ki (Cathepsin S; [1]): < 100 nM
- Selectivity for Cat. S over Cat. K (Cathepsin K; [2]): ++ (++, >100)

Compound: COc1ccc(NCCNC(=O)[C@H](Cc2ccc(Oc3cccc(Cl)c3)cc2)NC(=O)c2cccc(C)c2)cc1 [Compound 329, (S)-N-{2-[4-(3-Chloro-phenoxy)-phenyl]-1-[2-(4-methoxy-phenylamino)-ethylcarbamoyl]-ethyl}-3-methyl-benzamide]
- Ki (Cathepsin S; [1]): < 1000 nM
- Selectivity for Cat. S over Cat. K (Cathepsin K; [2]): ++ (++, >100)

Compound: O=C(N[C@@H](CC1CCCCC1)C(=O)NCCNc1ccc(OC(F)(F)F)cc1)c1ccc(-c2ccccc2C(F)(F)F)o1 [Compound 219, (S)-5-(2-Trifluoromethyl-phenyl)-furan-2-carboxylic acid {2-cyclohexyl-1-[2-(4-trifluoromethoxy-phenylamino)-ethylcarbamoyl]-ethyl}-amide]
- Ki (Cathepsin S; [1]): < 100 nM
- Selectivity for Cat. S over Cat. K (Cathepsin K; [2]): ++ (++, >100)

Compound: COc1ccc(NCCNC(=O)[C@H](Cc2ccccc2)NC(=O)NCc2cccc(F)c2)cc1 [Compound 96, (S)-2-[3-(3-Fluoro-benzyl)-ureido]-N-[2-(4-methoxy-phenylamino)-ethyl]-3-phenyl-propionamide]
- Ki (Cathepsin S; [1]): < 10000 nM
- Selectivity for Cat. S over Cat. K (Cathepsin K; [2]): + (+, >10)

Compound: COc1ccc(NCCNC(=O)[C@H](CC=Cc2ccccc2)NC(=O)c2cccc(C)c2)cc1 [Compound 208, (S)-N-{1-[2-(4-Methoxy-phenylamino)-ethylcarbamoyl]-4-phenyl-but-3-enyl}-3-methyl-benzamide]
- Ki (Cathepsin S; [1]): < 100 nM
- Selectivity for Cat. S over Cat. K (Cathepsin K; [2]): +++ (+++, >1000)

Compound: COc1ccc(NCCNC(=O)[C@H](Cc2ccccc2)NC(=O)Nc2ccc3c(c2)OCO3)cc1 [Compound 94, (S)-2-(3-Benzo[1,3]dioxol-5-yl-ureido)-N-[2-(4-methoxy-phenylamino)-ethyl]-3-phenyl-propionamide]
- Ki (Cathepsin S; [1]): < 10000 nM
- Selectivity for Cat. S over Cat. K (Cathepsin K; [2]): + (+, >10)

Compound: Cc1cccc(-c2ccc(C(=O)N[C@@H](CC3CCCCC3)C(=O)NCCNc3ccc(OC(F)(F)F)cc3)s2)c1 [Compound 47, 5-m-Tolyl-thiophene-2-carboxylic acid (S)-{2-cyclohexyl-1-[2-(4-trifluoromethoxy-phenylamino)-ethylcarbamoyl]-ethyl}-amide]
- Ki (Cathepsin S; [1]): < 100 nM
- Selectivity for Cat. S over Cat. K (Cathepsin K; [2]): +++ (+++, >1000)

Compound: CS(=O)(=O)c1cccc(C(=O)N[C@@H](CC2CCCCC2)C(=O)NCCNc2ccc(F)cc2)c1 [Compound 296, N-(S)-{2-cyclohexyl-1-[2-(4-fluoro-phenylamino)-ethylcarbamoyl]-ethyl}-3-methanesulfonyl-benzamide]
- Ki (Cathepsin S; [1]): < 100 nM
- Selectivity for Cat. S over Cat. K (Cathepsin K; [2]): +++ (+++, >1000)

Compound: O=C(Cc1cccs1)N[C@@H](CC1CCCCC1)C(=O)NCCNc1ccc(F)cc1 [Compound 76, 3-Cyclohexyl-N-[2-(4-fluoro-phenylamino)-ethyl]-2-(S)-(2-thiophen-2-yl-acetylamino)-propionamide]
- Ki (Cathepsin S; [1]): < 100 nM
- Selectivity for Cat. S over Cat. K (Cathepsin K; [2]): +++ (+++, >1000)

Compound: COc1ccc(NCCNC(=O)[C@H](CC2CCCCC2)NC(=O)c2ccc(-c3cc(Cl)cc(Cl)c3)cc2)cc1 [Compound 171, (S)-3′, 5′-Dichloro-biphenyl-4-carboxylic acid {2-cyclohexyl-1-[2-(4-methoxy-phenylamino)-ethylcarbamoyl]-ethyl}-amide]
- Ki (Cathepsin S; [1]): < 100 nM
- Selectivity for Cat. S over Cat. K (Cathepsin K; [2]): +++ (+++, >1000)

Compound: O=C(Cc1ccc(F)cc1)N[C@@H](CC1CCCCC1)C(=O)NCCNc1ccc(F)cc1 [Compound 152, 3-Cyclohexyl-2-(S)-[2-(4-fluoro-phenyl)-acetylamino]-N-[2-(4-fluoro-phenylamino)-ethyl]-propionamide]
- Ki (Cathepsin S; [1]): < 100 nM
- Selectivity for Cat. S over Cat. K (Cathepsin K; [2]): ++ (++, >100)

Compound: COc1ccc(NCCNC(=O)[C@H](Cc2ccccc2)NC(=O)Nc2cccc(OC)c2)cc1 [Compound 104, (S)-N-[2-(4-Methoxy-phenylamino)-ethyl]-2-[3-(3-methoxy-phenyl)-ureido]-3-phenyl-propionamide]
- Ki (Cathepsin S; [1]): < 10000 nM
- Selectivity for Cat. S over Cat. K (Cathepsin K; [2]): + (+, >10)

Compound: COc1ccc(NCCNC(=O)[C@H](Cc2ccc(C(C)(C)C)cc2)NC(=O)c2cccc(C)c2)cc1 [Compound 255, (S)-N-{2-(4-tert-Butyl-phenyl)-1-[2-(4-methoxy-phenylamino)-ethylcarbamoyl]-ethyl}-3-methyl-benzamide]
- Ki (Cathepsin S; [1]): < 1000 nM
- Selectivity for Cat. S over Cat. K (Cathepsin K; [2]): ++ (++, >100)

Compound: COc1ccc(NCCNC(=O)[C@H](CCCC2CCCCC2)NC(=O)c2cccc(C)c2)cc1 [Compound 203, (S)-N-{4-Cyclohexyl-1-[2-(4-methoxy-phenylamino)-ethylcarbamoyl]-butyl}-3-methyl-benzamide]
- Ki (Cathepsin S; [1]): < 100 nM
- Selectivity for Cat. S over Cat. K (Cathepsin K; [2]): +++ (+++, >1000)

Compound: COc1ccc(NCCNC(=O)[C@H](CC2CCCCC2)NC(=O)c2cc(C)c(OC)c(C)c2)cc1 [Compound 111, (S)-N-{2-Cyclohexyl-1-[2-(4-methoxy-phenylamino)-ethylcarbamoyl]-ethyl}-4-methoxy-3,5-dimethyl-benzamide]
- Ki (Cathepsin S; [1]): < 100 nM
- Selectivity for Cat. S over Cat. K (Cathepsin K; [2]): ++ (++, >100)

Compound: COc1ccc(NCCNC(=O)[C@@H](CC(C)C)NC(=O)c2ccc(-c3ccccc3)cc2)cc1 [reference compound]
- Ki (Cathepsin S; comparison compounds in the art, read-out: Ki (CatS)): < 100 nM
- Selectivity for Cat. S over Cat. K (Cathepsin K; comparison compounds in the art, ratio Ki CatK / Ki CatS): <10
- Ki (Cathepsin K; comparison compounds in the art, read-out: Ki (CatK)): < 100 nM

Compound: O=C(N[C@@H](CC1CCCCC1)C(=O)NCCNc1ccc(OC(F)(F)F)cc1)c1ccc(-n2cncn2)cc1 [Compound 221, (S)-N-{2-Cyclohexyl-1-[2-(4-trifluoromethoxy-phenylamino)-ethylcarbamoyl]-ethyl}-4-[1,2,4]triazol-1-yl-benzamide]
- Ki (Cathepsin S; [1]): < 100 nM
- Selectivity for Cat. S over Cat. K (Cathepsin K; [2]): + (+, >10)

Compound: O=C(N[C@@H](CC1CCCCC1)C(=O)NCCNc1ccc(OC(F)(F)F)cc1)c1ccc(-c2cnco2)cc1 [Compound 67, N-(S)-{2-cyclohexyl-1-[2-(4-trifluoromethoxy-phenylamino)-ethylcarbamoyl]-ethyl}-4-oxazol-5-yl-benzamide]
- Ki (Cathepsin S; [1]): < 100 nM
- Selectivity for Cat. S over Cat. K (Cathepsin K; [2]): + (+, >10)

Compound: COc1ccc(NCCNC(=O)[C@H](CCC2CCCCC2)NC(=O)c2cccc(OC(F)(F)F)c2)cc1 [Compound 138, (S)-N-{3-Cyclohexyl-1-[2-(4-methoxy-phenylamino)-ethylcarbamoyl]-propyl}-3-trifluoromethoxy-benzamide]
- Ki (Cathepsin S; [1]): < 100 nM
- Selectivity for Cat. S over Cat. K (Cathepsin K; [2]): +++ (+++, >1000)

Compound: O=C(N[C@@H](CC1CCCCC1)C(=O)NCCNc1ccc(OC(F)(F)F)cc1)c1ccc(-c2ccccc2F)o1 [Compound 212, (S)-5-(2-Fluoro-phenyl)-furan-2-carboxylic acid {2-cyclohexyl-1-[2-(4-trifluoromethoxy-phenylamino)-ethylcarbamoyl]-ethyl}-amide]
- Ki (Cathepsin S; [1]): < 100 nM
- Selectivity for Cat. S over Cat. K (Cathepsin K; [2]): ++ (++, >100)
